Measured values published in patent US20220071953A1, “Small Molecule Analogs Of The Protein E4ORF1 In The Treatment And Prevention Of Metabolic Disorders” (Texas Tech University System, priority 2019, published 2022).
Entries after “also recorded” stand apart in the source; their conditions may differ.

Experiments:
[1] = system: C57BL/6J male mice on a 60% kcal high-fat diet; assay: Glucose tolerance test (GTT) in high-fat diet fed mice; type: in vivo; settings: daily injection of 4 mg/kg, GTT 7 and/or 14 days post-treatment, vs DMSO control mice
Protocol: (§1) To determine improvement in glucose disposal in vivo, 10 wk old C57BL/6J male mice (Jax Laboratories) on a 60% kcal high-fat diet (Research diets, Inc.) since 6 weeks of age were divided into weight-matched groups. In individual experiments, mice were treated with daily injection of 4 mg/kg of respective small molecules (BN #3, BT #141, BT #143 and BT #181) or DMSO alone as control. Improvement in glycemic control was determined by glucose tolerance test (GTT) performed at baseline (prior to treatment), 7 days and/or 14 days post-treatment. Insulin-independent action of the small molecules was also measured by collecting blood during GTT and quantifying serum insulin by enzyme-linked immunosorbent assay (ELISA).

[2] = system: 3T3-L1 pre-adipocytes, mature adipocytes and murine skeletal muscle cells; assay: In vitro screening of small molecules for cellular glucose uptake; type: cell-based; settings: 20 μM/well, 24 h; for greater glucose uptake compared to control: other replications not presented; for increase in cellular glucose: tested 3 or more times in different cell types
Protocol: Next, over time, Applicants tested cellular glucose uptake with 41 different E4orf1 analog small molecules in 3T3-L1 pre-adipocytes, mature adipocytes and murine skeletal muscle cells. Cells were exposed to 20 μM/well of E4orf1 analogs. Glucose uptake by cells was determined 24 h later. Insulin and human adenovirus Ad36 were used as positive controls for glucose uptake. The * indicates statistical significance after Bonferroni correction for multiple comparisons.
Applicants conducted glucose uptake assays for compounds several separate times. BN #3 and BT #141 had about 70% greater glucose uptake compared to control in other replications not presented herein.

[3] = system: C57BL/6J male mice on a 60% kcal high-fat diet; assay: Serum insulin by ELISA during GTT in high-fat diet fed mice; type: in vivo; settings: daily injection of 4 mg/kg, vs DMSO control mice
Protocol: as §1

[4] = system: 3T3L1 preadipocytes; assay: Glucose uptake in 3T3L1 preadipocytes treated with E4orf1 analogs; type: cell-based; settings: analogs 2 μl/ml of media, 24 hr in dark, vs DMSO, repeated 3 times
Protocol: FIG. 3 illustrates that selected E4orf1 chemical analogs increase glucose uptake. 3T3L1 preadipocytes were treated with dimethyl sulfoxide (DMSO) or insulin or treated with analogs BT324, BT325, BT326, BT327, BT328, and BT329. The treatments were compared using one way analysis of variance (ANOVA) and post hoc Tukey's test. Groups sharing same letters are not statistically significant.
(§2) 3T3L1 preadipocytes (passage number 8 below) were used to treat with analogs. As control, cells were treated with equal volumes of DMSO. As positive control, cells were treated with 100 nM insulin. Cells at 70% confluency were treated with analogs (2 μl/ml of media) in dark for 24 hr. Post 24 hr treatment, cells were used either to determine glucose uptake or to obtain cell lysates for determining pAKT abundance by Western blot analysis.

[5] = system: pAkt/Akt; assay: Western blot for pAkt/Akt in cell lysates of treated 3T3L1 preadipocytes; type: cell-based; settings: 24 hr incubation, vs DMSO
Protocol: FIG. 4 illustrates that the E4orf1 chemical analogs that increase glucose uptake also increase pAkt levels—the underlying mechanism for increasing cellular glucose uptake. 3T3L1 preadipocytes were treated with DMSO or insulin or with analogs BT324, BT325, BT327, or BT329. Post 24 hr incubation in the dark, cell lysates were collected and 20 μg of protein was loaded and probed for pAkt/Akt. Band intensities were analyzed using Image J software. Groups sharing same letters are not statistically significant.
as §2

SMILES	glucose clearance / glycemic control (GTT) ([1]; 4 mg/kg)	greater glucose uptake compared to control [2]	increase in cellular glucose [2]	insulin secretion [3]	glucose uptake [4]	pAkt/Akt [5]	glucose clearance / glycemic control (GTT) ([1]; listed as BN #141, 4 mg/kg)
Cc1cc(C(C#N)Nc2ccc(B3OC(C)(C)C(C)(C)O3)cc2)no1 (stereo not shown) [BN #3]	improved glycemic control; also recorded: improved glucose disposal	about 70%	consistently significant increase in cellular glucose	lower insulin secretion			
COC(=O)c1cc2cc(Cl)ccc2oc1=O [BT324]					significantly increased glucose uptake	significant increase in pAkt/Akt	
O=C(O)c1cc2cc(Cl)ccc2oc1=O [BT325]					significantly increased glucose uptake	significant increase in pAkt/Akt	
O=C(O)c1cc2cc(Cl)ccc2[nH]c1=O [BT327]					significantly increased glucose uptake	significant increase in pAkt/Akt	
C#Cc1ccc(/C(N)=N/O)cc1 [BT329]					significantly increased glucose uptake	significant increase in pAkt/Akt	
CC1(C)OB(c2ccc(C(C#N)Nc3ccc(O)cc3)cc2)OC1(C)C (stereo not shown) [BT #141]	improved glycemic control	about 70%	consistently significant increase in cellular glucose				improved glucose disposal
